# Test results published in patent US9296741B2, “Bromodomain inhibitors” (priority 2012, dated 2016).
# What was measured:
# [1] = Mouse liver microsome stability assay; format: in vitro ADME; conditions: male, CD1, mouse, microsomes, pH 7.4
# [2] = Rat liver microsome stability assay; format: in vitro ADME; conditions: rat liver microsomes (male Sprague-Dawley), 0.5 μM test compound, 0.25 mg/mL microsomal protein, pH 7.4, 37° C.; read-out: Stability in rat liver microsomes (t1/2 in minutes)
# [3] = system: LPS induced IL-6 production; assay: LPS (lipopolysaccharide) induced IL-6 production mouse assay; format: in vivo; conditions: Mus musculus, read-out: Inhibition of LPS induced IL-6 production in Mice, % inhibition at 3 mg/kg; 3 mg/kg oral, 1 h before LPS; serum IL-6 2 h after LPS
# [4] = system: breast cancer cell line MX-1; assay: MX-1 cell line proliferation assay; format: cell-based, human; conditions: Homo sapiens, MX1, 72 h; MX-1 cells, 3-day proliferation, Cell Titer Glo; read-out: Cellular proliferation: EC50
# [5] = Human liver microsome stability assay; format: in vitro ADME; conditions: both sexes, human, microsomes, pH 7.4
# [6] = target: human BRD4 first bromodomain (BDI_K57-E168) (Homo sapiens (Human), UniProt O60885); assay: TR-FRET bromodomain binding assay, BRD4 first bromodomain
# [7] = target: human BRD4 second bromodomain (BDII_E352-M457) (Homo sapiens (Human), UniProt O60885); assay: TR-FRET bromodomain binding assay, BRD4 second bromodomain
half-life at 0.5 μM [1] [min],half-life at 0.5 μM [2] [min],EC50 [4] [nM],half-life at 0.5 μM [5] [min],Ki [6] [nM],Ki [7] [nM],SMILES,inhibition in vivo at 3 mg/kg [3] [%]
56,53,97.5,52,,,"CNS(=O)(=O)c1cnc(Oc2ccc(F)cc2F)c(-c2cn(C)c(=O)c3[nH]ccc23)c1 [Example 246, 6-(2,4-difluorophenoxy)-N-methyl-5-(6-methyl-7-oxo-6,7-dihydro-1H-pyrrolo[2,3-c]pyridin-4-yl)pyridine-3-sulfonamide]",71
,,43,,6.5,12.2,"Cn1cc(-c2cc(S(C)(=O)=O)ccc2NC2CCOC2)c2cc[nH]c2c1=O (stereo not shown) [Example 167, 6-methyl-4-[5-(methylsulfonyl)-2-(tetrahydrofuran-3-ylamino)phenyl]-1,6-dihydro-7H-pyrrolo[2,3-c]pyridin-7-one]",64
,,54.9,,10.7,8.1,"Cn1cc(-c2cc(S(C)(=O)=O)ccc2Oc2ccc(F)cc2)c2cc[nH]c2c1=O [Example 151, 4-[2-(4-fluorophenoxy)-5-(methylsulfonyl)phenyl]-6-methyl-1,6-dihydro-7H-pyrrolo[2,3-c]pyridin-7-one]",66
,,17.1,,2.1,3.3,"Cn1cc(-c2cc(NS(C)(=O)=O)ccc2Oc2ccc(F)cc2)c2cc[nH]c2c1=O [Example 26, N-[4-(4-fluorophenoxy)-3-(6-methyl-7-oxo-6,7-dihydro-1H-pyrrolo[2,3-c]pyridin-4-yl)phenyl]methanesulfonamide]",60
,9,23.9,21,,,"Cn1cc(-c2cc(NS(C)(=O)=O)cc(Cl)c2Oc2ccccc2)c2cc[nH]c2c1=O [Example 28, N-[3-chloro-5-(6-methyl-7-oxo-6,7-dihydro-1H-pyrrolo[2,3-c]pyridin-4-yl)-4-phenoxyphenyl]methanesulfonamide]",52
,23,53.4,> 120,,,"CNS(=O)(=O)c1cnc(OC2CCOC2)c(-c2cn(C)c(=O)c3[nH]ccc23)c1 (stereo not shown) [Example 87, N-methyl-5-(6-methyl-7-oxo-6,7-dihydro-1H-pyrrolo[2,3-c]pyridin-4-yl)-6-(tetrahydrofuran-3-yloxy)pyridine-3-sulfonamide]",57
,,66.5,,9.7,4.2,"Cn1cc(-c2cc(S(C)(=O)=O)ccc2Oc2cccc(F)c2)c2cc[nH]c2c1=O [Example 150, 4-[2-(3-fluorophenoxy)-5-(methylsulfonyl)phenyl]-6-methyl-1,6-dihydro-7H-pyrrolo[2,3-c]pyridin-7-one]",54
2,2,435,2,372,9.9,"Cn1cc(-c2cc(S(=O)(=O)N3CCc4ccccc43)ccc2Oc2ccc(F)cc2F)c2cc[nH]c2c1=O [Example 319, 4-[2-(2,4-difluorophenoxy)-5-(2,3-dihydro-1H-indol-1-ylsulfonyl)phenyl]-6-methyl-1,6-dihydro-7H-pyrrolo[2,3-c]pyridin-7-one]",
7,4,140,10,4.2,7.5,"Cn1cc(-c2cc(C(=O)NC3CCCC3)ccc2Oc2ccccc2)c2cc[nH]c2c1=O [Example 15, N-cyclopentyl-3-(6-methyl-7-oxo-6,7-dihydro-1H-pyrrolo[2,3-c]pyridin-4-yl)-4-phenoxybenzamide]",
,> 120,22.8,,1.7,1.4,"CCS(=O)(=O)c1ccc(O[C@H]2CC[C@@H](O)CC2)c(-c2cn(C)c(=O)c3[nH]ccc23)c1 [Example 202, 4-{5-(ethylsulfonyl)-2-[(cis-4-hydroxycyclohexyl)oxy]phenyl}-6-methyl-1,6-dihydro-7H-pyrrolo[2,3-c]pyridin-7-one]",68
71,58,405,58,6.1,84,"CN1CCN(C(=O)c2cc3c(-c4cc(S(C)(=O)=O)ccc4Oc4ccc(F)cc4F)cn(C)c(=O)c3[nH]2)CC1 [Example 256, 4-[2-(2,4-difluorophenoxy)-5-(methylsulfonyl)phenyl]-6-methyl-2-[(4-methylpiperazin-1-yl)carbonyl]-1,6-dihydro-7H-pyrrolo[2,3-c]pyridin-7-one]",
> 120,> 120,246,68,10.1,1.7,"Cn1cc(-c2cc(S(C)(=O)=O)ccc2Oc2ccc(F)cc2F)c2cc(C(N)=O)[nH]c2c1=O [Example 252, 4-[2-(2,4-difluorophenoxy)-5-(methylsulfonyl)phenyl]-6-methyl-7-oxo-6,7-dihydro-1H-pyrrolo[2,3-c]pyridine-2-carboxamide]",
8,5,> 3000,13,136,121,"Cn1cc(-c2cc(NS(=O)(=O)CCF)ccc2Oc2c(F)cc(F)cc2F)c2cc[nH]c2c1=O [Example 114, 2-fluoro-N-[3-(6-methyl-7-oxo-6,7-dihydro-1H-pyrrolo[2,3-c]pyridin-4-yl)-4-(2,4,6-trifluorophenoxy)phenyl]ethanesulfonamide]",
37,23,23.5,88,5.6,6,"CNS(=O)(=O)c1cnc(OCC2CC2)c(-c2cn(C)c(=O)c3[nH]ccc23)c1 [Example 208, 6-(cyclopropylmethoxy)-N-methyl-5-(6-methyl-7-oxo-6,7-dihydro-1H-pyrrolo[2,3-c]pyridin-4-yl)pyridine-3-sulfonamide]",
15,32,25,33,14.5,5.1,"COCCS(=O)(=O)Nc1ccc(Oc2ccc(F)cc2F)c(-c2cn(C)c(=O)c3[nH]ccc23)c1 [Example 236, N-[4-(2,4-difluorophenoxy)-3-(6-methyl-7-oxo-6,7-dihydro-1H-pyrrolo[2,3-c]pyridin-4-yl)phenyl]-2-methoxyethanesulfonamide]",
> 120,69,335,42,3.9,7.1,"CCS(=O)(=O)c1ccc(OC2CCN(C(C)=O)CC2)c(-c2cn(C)c(=O)c3[nH]ccc23)c1 [Example 303, 4-{2-[(1-acetylpiperidin-4-yl)oxy]-5-(ethylsulfonyl)phenyl}-6-methyl-1,6-dihydro-7H-pyrrolo[2,3-c]pyridin-7-one]",
3,9,381,4,180,19.3,"Cn1cc(-c2cc(S(=O)(=O)N3CCOCC3)ccc2Oc2ccc(F)cc2F)c2cc[nH]c2c1=O [Example 293, 4-[2-(2,4-difluorophenoxy)-5-(morpholin-4-ylsulfonyl)phenyl]-6-methyl-1,6-dihydro-7H-pyrrolo[2,3-c]pyridin-7-one]",
22,2,128,66,3.7,3.4,"CCNC(=O)c1ccc(Oc2ccccc2)c(-c2cn(C)c(=O)c3[nH]ccc23)c1 [Example 13, N-ethyl-3-(6-methyl-7-oxo-6,7-dihydro-1H-pyrrolo[2,3-c]pyridin-4-yl)-4-phenoxybenzamide]",
,,29.7,,11.5,3,"Cn1cc(-c2cc(S(C)(=O)=O)ccc2Oc2ccccc2F)c2cc[nH]c2c1=O [Example 149, 4-[2-(2-fluorophenoxy)-5-(methylsulfonyl)phenyl]-6-methyl-1,6-dihydro-7H-pyrrolo[2,3-c]pyridin-7-one]",69
63,42,199,> 120,8.7,10.3,"Cn1cc(-c2cc(S(N)(=O)=O)cnc2Nc2ccccc2)c2cc[nH]c2c1=O [Example 111, 5-(6-methyl-7-oxo-6,7-dihydro-1H-pyrrolo[2,3-c]pyridin-4-yl)-6-(phenylamino)pyridine-3-sulfonamide]",
,> 120,4.7,,0.69,0.75,"CCS(=O)(=O)c1ccc(O[C@H]2CC[C@H](O)CC2)c(-c2cn(C)c(=O)c3[nH]ccc23)c1 [Example 203, 4-{5-(ethylsulfonyl)-2-[(trans-4-hydroxycyclohexyl)oxy]phenyl}-6-methyl-1,6-dihydro-7H-pyrrolo[2,3-c]pyridine-7-one]",78
3,47,6.1,9,2.9,3.1,"CCS(=O)(=O)C(C)(C)c1ccc(Oc2ccc(F)cc2F)c(-c2cn(C)c(=O)c3[nH]ccc23)c1 [Example 298, 4-{2-(2,4-difluorophenoxy)-5-[2-(ethylsulfonyl)propan-2-yl]phenyl}-6-methyl-1,6-dihydro-7H-pyrrolo[2,3-c]pyridin-7-one]",
